Experimental findings from patent publication US20230024108A1, “ADENOSINE A2A RECEPTOR ANTAGONISTS” (Teon Therapeutics, Inc., priority 2019, published 2023) are described below.

The subject of one assay is phospho-CREB (pCREB). Kind of assay: Human whole blood phospho-CREB (pCREB) assay / modulation of pCREB in human immune cells. Type of assay: cell-based. To be noted: agonist (NECA or CGS-21680)-stimulated human blood cells. As for the experimental part: Fresh human blood samples are derived from healthy volunteers and processed in heparin tubes. 67.5 ul of whole blood is aliquoted to each well in a 96-well plate and incubated at 37° C. for 30 min. Testing compounds are diluted with DMSO to make 8-point 3-fold serial dilution and 3.5 ul (20×) is added to each well. Cells are incubated with the compounds at 37° C. for 30 min. NECA (5 uM) is then added to each well and cells are incubated for 30 min at 37° C. Following the stimulation, cells are transferred to a 96-well deep well plates and fixed with 1 ml/well of lyse/fix buffer (1×) (BD Biosciences #558049) with vigorous shake at 37° C. for 10 min. Cells are centrifuged at 600 g for 6 min and washed twice with PBS, followed by addition of 800 ul/well Perm buffer III (BD Biosciences #558050). Cells are then pelleted at 600 g for 6 min, washed with FACS buffer (PBS+0.2% BSA+1 mM EDTA) and stained for 40 min at room temperature in the dark with an antibody cocktail containing PE mouse anti-human CD3 (BD Biosciences #555333, 1 ul/well), FITC mouse anti-human CD4 (BD Biosciences #5555346, 1 ul/well), PerCP-Cy™5.5 mouse anti-human CD8 (BD Biosciences #565310, 1 ul/well) and phospho-CREB (Ser133) (87G3) Rabbit mAb (Alexa Fluor® 647 Conjugate, CST #14001, 0.5 ul/well). Cells are then washed twice with FACS buffer and acquired on a flow cytometer (Sony Cell Sorter SH800). Data were analyzed using FlowJo version 9. The level of CREB phosphorylation from unstimulated cells (Low control: LC) and NECA-stimulated cells (High control: HC) are determined as mean fluorescent intensity (MFI) in stimulated condition/mean fluorescent intensity in unstimulated condition. % Inhibition is calculated as (MFI of HC-MFI of assay well)/(MFI of HC-MFI of LC)×100%. Data are analyzed and IC50s calculated using GraphPad Prism 5 and the model “log(inhibitor) vs. response—Variable slope”.
The A2A receptor is known to mediate CREB phosphorylation.
Venous blood from healthy volunteers, all of whom signed an informed consent approved by the Ethics Committee (FOR—UIC-BV-050-01-01 ICF HBS HD Version 5.0), was obtained via ImmuneHealth (Centre Hospitalier Universitaire Tivoli, La Louviere,
15 Belgium). Peripheral blood cells were treated with A2AR agonists CGS-21680 or NECA (Sigma-Aldrich, Diegem, Belgium), and a serial dilution of compounds disclosed herein (all used stock solutions at 10 mM in DMSO). All dilutions were prepared in RPMI1640 medium (with UltraGlutamine; Lonza, Venders, Belgium), and cells were incubated with compounds in a 37° C. humidified tissue culture incubator with 5% CO2.
After stimulation, cells were fixed and permeabilized, followed by intracellular staining using mouse anti-human pCREB antibodies (Clone J151-21; BD Biosciences) at room temperature. Data were acquired using an LSRFortessa flow cytometer (BD Biosciences) and analyzed using FlowJo software (FlowJo, LLC, Ashland, Oregon).

The target of another assay is T1, A1AdoR (Homo sapiens, UniProt P30542).
T1 construct: purchased PerkinElmer ES-010-M400UA
T1 sequence (P30542 1-326): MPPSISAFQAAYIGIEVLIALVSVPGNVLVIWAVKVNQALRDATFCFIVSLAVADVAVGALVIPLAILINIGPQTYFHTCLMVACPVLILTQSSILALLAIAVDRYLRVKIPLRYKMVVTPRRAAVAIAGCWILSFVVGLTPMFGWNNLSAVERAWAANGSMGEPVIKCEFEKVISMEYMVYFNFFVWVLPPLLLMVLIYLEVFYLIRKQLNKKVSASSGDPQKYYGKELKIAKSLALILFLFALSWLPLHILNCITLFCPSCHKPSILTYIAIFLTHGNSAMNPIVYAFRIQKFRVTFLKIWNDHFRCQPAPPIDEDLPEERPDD
Nature of the assay: Adenosine receptor binding assay, A1 ([3H]-DPCPX). The following applies: ratio A1 vs A2A binding. The method, boiled down:
(§1)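 Filtration binding on membranes: A2A in HEK-293 with 6 nM [3H]-CGS-21680, Tris pH 7.4, 2 h; A2B in HEK-293 with 8 nM [3H]-DPCPX, HEPES pH 7.0, 1 h; A1 in CHO-K1 with 1 nM [3H]-DPCPX, HEPES pH 7.4, 1 h; room temperature. 8-point dilutions; IC50 converted to Ki (Cheng–Prusoff).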

The target in a further assay is T2, human A2A AdoR (Homo sapiens, UniProt P29274).
T2 construct: purchased PerkinElmer RBHA2AM400UA
Nature of the assay: Adenosine receptor binding assay, A2A ([3H]-CGS-21680). The following applies: membranes of HEK-293 cells expressing human A2A AdoR; read-out: hA2A IC50. The method, boiled down:
as §1

Structures are written as SMILES.

T2 sequence (P29274 whole entry): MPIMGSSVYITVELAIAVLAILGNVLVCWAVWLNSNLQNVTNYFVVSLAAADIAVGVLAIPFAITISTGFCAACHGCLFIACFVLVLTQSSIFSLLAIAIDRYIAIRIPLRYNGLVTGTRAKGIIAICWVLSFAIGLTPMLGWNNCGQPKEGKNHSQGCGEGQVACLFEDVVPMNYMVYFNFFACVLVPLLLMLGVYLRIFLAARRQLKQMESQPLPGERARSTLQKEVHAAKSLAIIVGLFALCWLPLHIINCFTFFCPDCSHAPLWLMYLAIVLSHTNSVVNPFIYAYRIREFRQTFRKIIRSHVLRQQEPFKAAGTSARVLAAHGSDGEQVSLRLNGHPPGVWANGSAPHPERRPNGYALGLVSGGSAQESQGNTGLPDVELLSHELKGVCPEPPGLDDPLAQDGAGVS

On to `CC#Cc1nc2c3ncn(CCN4CCN(c5cc(-c6ncco6)ccc5F)CC4)c3nc(N)n2n1`, for which the EC50 (as a rule, the concentration that produces a half-maximal response) in the assay on phospho-CREB (pCREB) was in the range of 20 to 100 nM. Besides, on A1AdoR, the “A1/A2A Selectivity” value is listed as “a (greater than 1000)”. For the same compound, on human A2A AdoR, the concentration for half-maximal inhibition (IC50) – broadly, the concentration at which inhibition is half-maximal – is no more than 20 nM.

`COC(=O)c1c(C)c2c(nc(N)n3nc(-c4ccccn4)nc23)n1CCN1CCN(c2cc(-c3ncco3)ccc2F)CC1`: in the assay with phospho-CREB (pCREB), the EC50 is greater than 100 nM. In addition, at A1AdoR, the “A1/A2A Selectivity” value is recorded as “a (greater than 1000)”. For the same compound, on human A2A AdoR, the IC50 was no more than 20 nM.

Regarding `Cc1c(C(=O)N2CCC2)n(CCN2CCN(c3cc(-c4ncco4)ccc3F)CC2)c2nc(N)n3nc(-c4ccccn4)nc3c12`, in the assay on phospho-CREB (pCREB), the concentration giving a half-maximal response (EC50) lay within 20 to 100 nM. The “A1/A2A Selectivity” value at A1AdoR was “b (greater than 100 but less than or equal to 1000)”. Besides, at human A2A AdoR, the IC50 was no more than 20 nM.

In the assay on phospho-CREB (pCREB), `Cc1c(C(N)=O)n(CCN2CCN(c3cc(-c4ncco4)ccc3F)CC2)c2nc(N)n3nc(-c4ccccn4)nc3c12` had an EC50 of no more than 20 nM. Further, at A1AdoR, the “A1/A2A Selectivity” value was “a (greater than 1000)”. The IC50 at human A2A AdoR is no more than 20 nM.

For `CS(=O)(=O)NC(=O)COc1ccc(N2CCN(CCn3c(C#N)c(Cl)c4c3nc(N)n3nc(-c5ccccn5)nc43)CC2)cc1`, the concentration giving a half-maximal response (EC50) in the assay on phospho-CREB (pCREB) fell in the range of 20 to 100 nM. Further, the “A1/A2A Selectivity” value on A1AdoR is recorded as “b (greater than 100 but less than or equal to 1000)”. Besides, the half-maximal inhibitory concentration (IC50) at human A2A AdoR was no more than 20 nM.

Consider `CNC(=O)c1c(C)c2c(nc(N)n3nc(-c4ccccn4)nc23)n1CCN1CCN(c2cc(-c3ncco3)ccc2F)CC1`, for which, in the assay with phospho-CREB (pCREB), the EC50 was no more than 20 nM. At A1AdoR, the “A1/A2A Selectivity” value was “a (greater than 1000)”. Moreover, the IC50 on human A2A AdoR is no more than 20 nM.

Turning to `N#Cc1c(Cl)c2c(nc(N)n3nc(-c4ccccn4)nc23)n1CCN1CCN(c2cc(-c3ncco3)ccc2F)CC1`, the EC50 with phospho-CREB (pCREB) fell in the range of 20 to 100 nM. The IC50 on human A2A AdoR was no more than 20 nM.

In turn, `Cc1noc2cc(F)c(N3CCN(CCn4cnc5c4nc(N)n4nc(-c6ccccn6)nc54)CC3)cc12` [3-(2-(4-(6-fluoro-3-methylbenzo[d]isoxazol-5-yl)piperazin-1-yl)ethyl)-8-(pyridin-2-yl)-3H-[1,2,4]triazolo[5,1-i]purin-5-amine] showed an EC50 in the assay on phospho-CREB (pCREB) greater than 100 nM. Also, on A1AdoR, the “A1/A2A Selectivity” value is “b (greater than 100 but less than or equal to 1000)”. Besides, the IC50 at human A2A AdoR is no more than 20 nM.

With `CS(=O)(=O)NC(=O)COc1ccc(N2CCN(CCn3c(C#N)cc4c3nc(N)n3nc(-c5ccccn5)nc43)CC2)cc1` [2-(4-(4-(2-(5-amino-8-cyano-2-(pyridin-2-yl)-7H-pyrrolo[3,2-e][1,2,4]triazolo[1,5-c]pyrimidin-7-yl)ethyl)piperazin-1-yl)phenoxy)-N-(methylsulfonyl)acetamide], the EC50 in the assay on phospho-CREB (pCREB) was greater than 100 nM. Further, the “A1/A2A Selectivity” value at A1AdoR is listed as “b (greater than 100 but less than or equal to 1000)”. Also, the IC50 at human A2A AdoR is no more than 20 nM.

`Cc1cn(CCN2CCN(c3cc(-c4ncco4)ccc3F)CC2)c2nc(N)n3nc(-c4ccccn4)nc3c12`: the EC50 in the assay with phospho-CREB (pCREB) fell in the range of 20 to 100 nM. Besides, at A1AdoR, the “A1/A2A Selectivity” value is “c (greater than 0 but less than or equal to 100)”. In addition, the IC50 at human A2A AdoR is no more than 20 nM.

Regarding `CNC(=O)c1cc2c(nc(N)n3nc(-c4ccccn4)nc23)n1CCN1CCN(c2cc(-c3ncco3)ccc2F)CC1` [5-amino-7-(2-(4-(2-fluoro-5-(oxazol-2-yl)phenyl)piperazin-1-yl)ethyl)-N-methyl-2-(pyridin-2-yl)-7H-pyrrolo[3,2-e][1,2,4]triazolo[1,5-c]pyrimidine-8-carboxamide], the EC50 in the assay with phospho-CREB (pCREB) was greater than 100 nM. The “A1/A2A Selectivity” value on A1AdoR was “c (greater than 0 but less than or equal to 100)”. For the same compound, the IC50 at human A2A AdoR was no more than 20 nM.
